Data from patent US20230127046A1, “G9a INHIBITOR” (RIKEN, priority 2019, published 2023).
pIC50: −log10 of the molar value.

biological target: T1, recombinant human G9a protein (Homo sapiens, UniProt Q96KQ7); test: G9a inhibitory activity test (ALPHA); assay type: biochemical; conditions: biotinylated histone H3 peptide (1-21), SAM, read-out: Inhibitory activity (G9a IC50 value)
T1 construct: purchased BPS Bioscience Inc. #51001
T1 sequence (Q96KQ7 785-1210 limits assumed): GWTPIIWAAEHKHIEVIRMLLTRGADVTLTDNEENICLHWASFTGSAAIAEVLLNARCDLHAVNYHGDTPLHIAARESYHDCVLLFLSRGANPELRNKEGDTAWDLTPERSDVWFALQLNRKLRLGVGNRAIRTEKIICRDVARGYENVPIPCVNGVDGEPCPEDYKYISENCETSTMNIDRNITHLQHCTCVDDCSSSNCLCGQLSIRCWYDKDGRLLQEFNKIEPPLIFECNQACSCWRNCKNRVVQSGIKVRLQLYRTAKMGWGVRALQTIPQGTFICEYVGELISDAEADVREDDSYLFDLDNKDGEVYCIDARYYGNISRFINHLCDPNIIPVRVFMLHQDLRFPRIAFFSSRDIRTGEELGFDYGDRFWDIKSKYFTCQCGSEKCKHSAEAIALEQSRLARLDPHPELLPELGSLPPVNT
In short: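 Human G9a (0.05 to 0.1 nM) in Tris pH 9.0 buffer preincubated with compound 10 min, then biotinylated histone H3 (1-21) peptide and SAM mixed 1:1 from 500 nM and 150 μM solutions, 1 h at room temperature. H3K9me2 detected by AlphaLISA acceptor/streptavidin donor beads; IC50 from percent inhibition relative to no-compound and no-enzyme controls.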

pIC50	Compound
≤ 6.70	CCCCC(NC(=O)c1[nH]c2c(c1C)C(=O)CC(C)(C)C2)C(=O)Nc1cccc2c1CCN(C)C2 (stereo not drawn) [Example 1-55]
≤ 6.70	CCCCC(NC(=O)c1[nH]c2c(c1C)C(=O)CC(C)(C)C2)C(=O)Nc1ccccc1COC (stereo not drawn) [Example 1-22]
≤ 6.70	CCCCC(NC(=O)c1[nH]c2c(c1C)C(=O)CC(C)(C)C2)C(=O)NCc1ccccc1 (stereo not drawn) [Example 1-39]
≤ 6.70	CCCCC(NC(=O)c1[nH]c2c(c1C)C(=O)CC(C)(C)C2)C(=O)Nc1ccnn1CC (stereo not drawn) [Example 1-17]
≤ 6.70	CCCCC(NC(=O)c1[nH]c2c(c1C)C(=O)CC(C)(C)C2)C(=O)NCc1ccc(C#N)cc1 (stereo not drawn) [Example 1-52]
≤ 6.70	CCCCC(NC(=O)c1[nH]c2c(c1C)C(=O)CC(C)(C)C2)C(=O)Nc1ccc(CN2CCC(F)(F)CC2)cc1 (stereo not drawn) [Example 1-7]
6.70 to 7.30	CCCCC(NC(=O)c1[nH]c2c(c1C)C(=O)CC(C)(C)C2)C(=O)N[C@@H]1CCCc2ccccc21 (stereo partly drawn) [Example 1-104]
≤ 6.70	CCCCC(NC(=O)c1[nH]c2c(c1C)C(=O)CC(C)(C)C2)C(=O)Nc1ccc(F)cc1 (stereo not drawn) [Example 1-26]
≤ 6.70	CCCCC(NC(=O)c1[nH]c2c(c1C)C(=O)CC(C)(C)C2)C(=O)Nc1cccc2c1CCC2 (stereo not drawn) [Example 1-34]
≤ 6.70	CCCCC(NC(=O)c1[nH]c2c(c1C)C(=O)CC(C)(C)C2)C(=O)NCc1ccccc1O (stereo not drawn) [Example 1-29]
6.70 to 7.30	Cc1c(C(=O)NC(CCC2CC2)C(=O)Nc2cccc(C#N)c2)[nH]c2c1C(=O)CC(C)(C)C2 (stereo not drawn) [Example 1-62]
6.70 to 7.30	Cc1c(C(=O)NC(CCC2CC2)C(=O)N2CCc3c(CN(C)C)cccc32)[nH]c2c1C(=O)CC(C)(C)C2 (stereo not drawn) [Example 1-59]
6.70 to 7.30	CCCCC(NC(=O)c1[nH]c2c(c1C)C(=O)CC(C)(C)C2)C(=O)Nc1ccccc1SC (stereo not drawn) [Example 1-2]
≤ 6.70	CCCCC(NC(=O)c1[nH]c2c(c1C)C(=O)CC(C)(C)C2)C(=O)Nc1ccc(C)cc1 (stereo not drawn) [Example 1-21]
≤ 6.70	CCCCC(NC(=O)c1[nH]c2c(c1C)C(=O)CC(C)(C)C2)C(=O)NCc1ccc(CCCO)cc1 (stereo not drawn) [Example 1-1, N-[1-[[4-(3-hydroxypropyl)phenyl]methylamino]-1-oxohexan-2-yl]-3,6,6-trimethyl-4-oxo-5,7-dihydro-1H-indole-2-carboxamide]
≤ 6.70	CCCCC(NC(=O)c1[nH]c2c(c1C)C(=O)CC(C)(C)C2)C(=O)NC1CCN(CCCN2CCCC2)CC1 (stereo not drawn) [Example 1-56]

same assay, conditions: read-out: Inhibitory activity (G9a IC50)

Compound	pIC50
COc1ccc2c(c1)N(C(=O)C(CCC1CC1)NC(=O)c1[nH]c3c(c1C)C(=O)CC(C)(C)C3)CC2 (stereo not drawn) [Example 1-131]	≤ 6.70
CCCCC(NC(=O)c1[nH]c2c(c1C)C(=O)CC(C)(C)C2)C(=O)Nc1ccc(N)cc1 (stereo not drawn) [Example 21, N-[1-(4-aminoanilino)-1-oxohexan-2-yl]-3,6,6-trimethyl-4-oxo-5,7-dihydro-1H-indole-2-carboxamide]	≤ 6.70
Cc1c(C(=O)NC(CCC2CC2)C(=O)N2CCc3cc(CN4CCOCC4)ccc32)[nH]c2c1C(=O)CC(C)(C)C2 (stereo not drawn) [Example 1-143]	≤ 6.70
CCCC[C@H](NC(=O)c1[nH]c2c(c1C)C(=O)CC(C)(C)C2)C(=O)NCc1ccc(N2CCN(CCO)CC2)cc1 [Example 23, (S)-N-(1-((4-(4-(2-hydroxyethyl)piperazin-1-yl)benzyl)amino)-1-oxohexan-2-yl)-3,6,6-trimethyl-4-oxo-4,5,6,7-tetrahydro-1H-indole-2-carboxamide]	≤ 6.70
Cc1c(C(=O)NC(CCC2CC2)C(=O)Nc2ccc(CN(C)C)cc2)[nH]c2c1C(=O)CC(C)(C)C2 (stereo not drawn) [Example 1-138]	> 7.30

Further lines, results first:

pIC50	Compound
≤ 6.70	CCCCC(NC(=O)c1cc2cc(OC)c(OC)cc2[nH]1)C(=O)Nc1ccc(OC2CCN(C)CC2)nc1 (stereo not drawn) [Example 6-97]
≤ 6.70	CCCCC(NC(=O)c1[nH]c2c(c1C)C(=O)CC(C)(C)C2)C(=O)NCc1ccc(CN2CCC(F)(F)CC2)cc1 (stereo not drawn) [Example 18-8]
≤ 6.70	CCCC[C@H](NC(=O)c1[nH]c2c(c1C)C(=O)CC(C)(C)C2)c1nc2ccc(OCCCN3CCOCC3)cc2[nH]1 [Example 34-3]
≤ 6.70	CCCCC(NC(=O)c1[nH]c2c(c1C)C(=O)CC(C)(C)C2)C(=O)Nc1ccccc1C(F)F (stereo not drawn) [Example 5-1, N-[1-[2-(difluoromethyl)anilino]-1-oxohexan-2-yl]-3,6,6-trimethyl-4-oxo-5,7-dihydro-1H-indole-2-carboxamide]
> 7.30	CCCCC(NC(=O)c1ccc(Nc2ccncc2)cc1)C(=O)Nc1ccc(OC2CCN(C)CC2)nc1 (stereo not drawn) [Example 11-5]
≤ 6.70	COc1ccc(NC(=O)C(CCC2CC2)NC(=O)c2cccc(CCCN(C)C)c2)cn1 (stereo not drawn) [Example 6-75]
≤ 6.70	CCCCC(NC(=O)c1ccc(Nc2ccccc2)cc1C)C(=O)Nc1ccc(OC2CCN(C)CC2)nc1 (stereo not drawn) [Example 11-6]
> 7.30	CCCC[C@H](NC(=O)c1[nH]c2c(c1C)C(=O)CC(C)(C)C2)C(=O)Nc1ccc(OC2CNC2)nc1 [Example 26-2]
6.70 to 7.30	CCCC[C@H](NC(=O)c1[nH]c2c(c1CCC)C(=O)CC(C)(C)C2)C(=O)N[C@@H](C)c1ccccc1 [Example 6-42]
≤ 6.70	CCCCC(NC(=O)c1[nH]c2c(c1C)C(=O)CC(C)(C)C2)C(=O)Nc1cccc2c1CCNC2 (stereo not drawn) [Example 25-1, 3,6,6-trimethyl-4-oxo-N-[1-oxo-1-(1,2,3,4-tetrahydroisoquinolin-5-ylamino)hexan-2-yl]-5,7-dihydro-1H-indole-2-carboxamide]
> 7.30	CCCCC(NC(=O)c1[nH]c2c(c1C)C(=O)CC(C)(C)C2)C(=O)Nc1ccc(OC2CCNCC2)nc1 (stereo not drawn) [Example 26-4]
> 7.30	CCCCC(NC(=O)c1[nH]c2c(c1C)C(=O)CC(C)(C)C2)C(=O)NCc1ccc(CN2CCC(F)CC2)cc1 (stereo not drawn) [Example 18-10]
> 7.30	CCc1cc(Br)ncc1NC(=O)C(CCC1CC1)NC(=O)c1[nH]c2c(c1C)C(=O)CC(C)(C)C2 (stereo not drawn) [Example 6-15]
6.70 to 7.30	CCCC[C@H](NC(=O)c1[nH]c2c(c1CC)C(=O)CC(C)(C)C2)C(=O)N[C@@H](CC)c1ccccc1 [Example 6-39]
≤ 6.70	Cc1c(C(=O)NC(CCC2CCC2)C(=O)Nc2ccccc2)[nH]c2c1C(=O)CC(C)(C)C2 (stereo not drawn) [Example 6-24]
6.70 to 7.30	Cc1cc(-n2ccc3cnccc32)ccc1C(=O)NC(CCC1CC1)C(=O)Nc1ccc(C#N)nc1 (stereo not drawn) [Example 6-83]
6.70 to 7.30	CCCC[C@H](NC(=O)c1[nH]c2c(c1C)C(=O)CC(C)(C)C2)C(=O)NCc1ccc(N2CCN(CCCC)CC2)cc1 [Example 22-5]
6.70 to 7.30	CC(C)c1c(C(=O)N[C@@H](CCC2CC2)C(=O)Nc2ccc(C#N)cc2)[nH]c2c1C(=O)CC(C)(C)C2 [Example 15-4]
≤ 6.70	COc1ccc(NC(=O)C(CCC2CC2)NC(=O)c2ccc(C3=CCN(C)CC3)cc2)cn1 (stereo not drawn) [Example 6-68]
≤ 6.70	CCCCC(NC(=O)c1[nH]c(C)c(C(=O)OCC)c1C)C(=O)Nc1ccc(OC2CCN(C)CC2)nc1 (stereo not drawn) [Example 6-91]
> 7.30	CCCCC(NC(=O)c1[nH]c2c(c1C)C(=O)CC(C)(C)C2)C(=O)Nc1ccc(C)cc1CC (stereo not drawn) [Example 14-2]
≤ 6.70	CCCCC(NC(=O)c1[nH]c2c(c1C)C(=O)CC(C)(C)C2)C(=O)N[C@H](CO)c1ccccc1 (stereo partly drawn) [Example 3-2]
6.70 to 7.30	CCCCC(NC(=O)c1[nH]c2c(c1C)C(=O)CC(C)(C)C2)C(=O)Nc1ccc(N2CCNCC2)nc1 (stereo not drawn) [Example 26-5]
> 7.30	Cc1cc(Nc2ccncc2)ccc1C(=O)NC(CCC1CC1)C(=O)Nc1ccc(C#N)nc1 (stereo not drawn) [Example 6-84]
